Reference: patent publication US5710130A, “Antithrombotic agents” (Eli Lilly and Company, priority 1995, dated 1998)
Structures can show the parent of a compound that is named as a salt.

Key:
human plasma [1] = experiment: Human plasma anticoagulation, thrombin time (TT); assay type: biochemical; conditions: concentration required to double thrombin time, linear extrapolation
Procedure, shortened: (§1)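 Test compounds are added to human plasma at many concentrations. Clotting is then initiated by reagent (Thromboplastin-C for PT; Actin for 120 s followed by 0.02M calcium chloride for APTT; 10 NIH units/mL bovine thrombin for TT) and timed instrumentally. The concentration giving twofold prolongation is derived by linear extrapolation.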

human plasma [2] = experiment: Human plasma anticoagulation, prothrombin time (PT); assay type: biochemical; conditions: concentration required to double PT, linear extrapolation
Procedure, shortened: as §1

human plasma [3] = experiment: Human plasma anticoagulation, activated partial thromboplastin time (APTT); assay type: biochemical; conditions: concentration required to double APTT, linear extrapolation
Procedure, shortened: as §1

[4] = Index of bioavailability (% Relative Activity) from plasma TT time course, oral vs i.v.; assay type: in vivo; conditions: p.o. dose per legend (20, 60 or 50 mg/kg)
Description: Parke Davis) at 37° C. […] Assays are done in duplicate and averaged. […] Each sample population represented alternating sequential time points.

Human Thrombin = Human Thrombin (Homo sapiens, UniProt P00734); experiment: Inhibition of thrombin amidase activity (Kass), chromogenic substrate; assay type: biochemical; conditions: mean Kass over a range of concentrations; substrate N-benzoyl-Phe-Val-Arg-p-nitroanilide

Compound	% oral/i.v. activity (Rat), screening not completed [4]	Kass Human Thrombin (Human Thrombin)	Human Plasma Anticoagulation 2x Clotting time TT (human plasma [1]) [ng/mL]	Human Plasma Anticoagulation 2x Clotting time PT (human plasma [2])	Human Plasma Anticoagulation 2x Clotting time APTT (human plasma [3])
CCS(=O)(=O)N[C@H](Cc1ccccc1)C(=O)N1[C@H](C(=O)NCc2ccc(C(=N)N)cc2)C[C@@H]2CCCC[C@@H]21 (relative stereo) [Example 45, hydrochloride]	NC^2		8	330 ng/mL	200 ng/mL
N=C(N)c1ccc(CNC(=O)[C@@H]2C[C@@H]3CCCC[C@@H]3N2C(=O)[C@@H](Cc2ccccc2)NCC(=O)O)cc1 (relative stereo) [Example 47, HOOCCH2 -D-Phe-cis-Ohi-p-NHCH2 C6 H4 C(NH)NH2.HCl]	NC^2	45 × 10^6 (L/mole)	12	270 ng/mL	140 ng/mL
N=C(N)c1cc(F)c(CNC(=O)[C@@H]2CCCN2C(=O)[C@@H](CC2CCCCC2)NCC(=O)O)c(F)c1 [Example 72, N-(carboxymethyl)-D-cyclohexylalanyl-N-[[4-(aminoiminomethyl-2,6-difluorophenyl]methyl]-L-prolinamide hydrochloride]	NC^1		1	160 ng/mL	160 ng/mL
Cl.Cl.N=C(N)c1ccc(CNC(=O)C2CC3CCCCC3N2C(=O)C2NCCC3CCCCC32)cc1 [Example 42, D-1-Piq-cis-Ohi-p-NHCH2 C6 H4 C(NH)NH2.2HCl]	NC2	38 × 10^6 (L/mole)	20	320 ng/mL	270 ng/mL
CCS(=O)(=O)N[C@H](Cc1ccccc1)C(=O)N1CCC[C@H]1C(=O)NCCc1ccc(C(=N)N)cc1 [Example 26, EtSO2 -D-Phe-Pro-p-NHCH2 CH2 -C6 H4 C(=NH)NH2.HCl]	NC^1		37	750 ng/mL	870 ng/mL
Cl.Nc1ccc(CNC(=O)[C@@H]2CCCN2C(=O)[C@@H](CC2CCCCC2)NCC(=O)O)c(F)c1 [Example 64, HO2 CCH2 -D-Cha-Pro-4-NHCH2 -3-F-C6 H3 NH2.HCl]	NC^3	15 × 10^6 (L/mole)	23	650 ng/mL	900 ng/mL
HOOCCH2 -D-Phe-Pro(4-cis-isoamyl)-p-NHCH2 C6 H4 C(NH)NH2.HCl [Example 50]		40 × 10^6 (L/mole)	35	420 ng/mL	460 ng/mL

Now from value to compound, other results behind:

% oral/i.v. activity (Rat), screening not completed [4]	Kass Human Thrombin (Human Thrombin)	Compound	Human Plasma Anticoagulation 2x Clotting time TT (human plasma [1]) [ng/mL]	Human Plasma Anticoagulation 2x Clotting time PT (human plasma [2])	Human Plasma Anticoagulation 2x Clotting time APTT (human plasma [3])
NC^2		N=C(N)c1ccc(CNC(=O)[C@@H]2C[C@@H]3CCCC[C@@H]3N2C(=O)[C@@H](CC2CCCCC2)NCC(=O)O)cc1 (relative stereo) [Example 49, (S-cis)-N-[[4-(aminoiminomethyl)phenyl]methyl]-1-[N-(carboxymethyl)-D-cyclohexylalanyl-1H-indole-2-carboxamide hydrochloride]	5		
NC^1		N=C(N)c1ccc(CNC(=O)[C@@H]2CCCN2C(=O)[C@@H](CC2CCCCC2)NCC(=O)O)c(F)c1 [Example 71, N-(carboxymethyl)-D-cyclohexylalanyl-N-[[4-(aminoiminomethyl)-2-fluorophenyl]methyl]-L-prolinamide hydrochloride]	1	150 ng/mL	89 ng/mL
	11 × 10^6 (L/mole)	N=C(N)C1CCC(CNC(=O)[C@@H]2CCCN2C(=O)[C@@H](CC2CCCCC2)NCC(=O)O)NC1 (stereo partly drawn) [Example 67, HO2 CCH2 -D-Cha-Pro-2-NHCH2 -5-amidinopiperidine.HCl]	34	1,300 ng/mL	1,800 ng/mL
	11 × 10^6 (L/mole)	NCc1ccc(CNC(=O)[C@@H]2CCCN2C(=O)[C@@H](CC2CCCCC2)NCC(=O)O)cc1 [Example 78, HO2 CCH2 -D-Cha-Pro-4-NHCH2 C6 H4 CH2 NH2.HCl]	46	760 ng/mL	430 ng/mL
	28 × 10^6 (L/mole)	Cl.Nc1cc(CNC(=O)[C@@H]2CCCN2C(=O)[C@@H](CC2CCCCC2)NCC(=O)O)ccn1 [Example 73, HO2 CCH2 -D-Cha-Pro-4-NHCH2 -2-aminopyridine.HCl]	21	330 ng/mL	340 ng/mL
